As usually defined, the IC50 is the midpoint of a concentration-inhibition curve.

The source of these data is US20230043863A1, “HETEROAROMATIC DERIVATIVES FOR USE AS REGULATOR, PREPARATION METHOD THEREFOR AND USE THEREOF” (JIANGSU HANSOH PHARMACEUTICAL GROUP CO., LTD., priority 2018, published 2023).

Each structure is given as a SMILES string.

Experiment [1] has as its target JAK1 (Homo sapiens, UniProt P23458). Kind of experiment: JAK kinase activity inhibition, TR-FRET (JAK1). It counts as biochemical. Conditions: TR-FRET kinase assay. How it is done:
(§1) Experimental objective: The objective of this test is to test the inhibitory effect of the compound on JAK kinase activity.
(§2) Experimental method: the fluorescence resonance energy transfer (TR-FRET) method was used to test the inhibitory effect of the compound on JAK kinase activity, and the half inhibitory concentration IC50 of the compound on JAK kinase activity was obtained.
(§3) Kinase reaction was carried out in a white 384-well plate (PerkinElmer). 1-5 μL of different concentrations of the compound diluted with DMSO and ddH2O was added into each well, and 1-5 μL of the corresponding solvent was added to the positive control wells, followed by addition of 0.1-20 nM JAK kinase solution diluted with 1-5 μL of kinase buffer (HEPES 50-250 mM, MgCl2 5-20 mM, etc.) was added to each well. 1-5 μL of kinase buffer was added to the negative control well. 1-5 μL of substrate mixture containing peptide substrate and ATP was added. The plate was incubated at room temperature for 0.5-5 hours. […], EDTA and detection solution containing labeled antibody was added, and then the plate was incubated at room temperature for another 1-24 hours. The fluorescence signal value at about 620 nm and 665 nm of each well was measured by BioTek Synergy H1 plate reader, and the inhibition rate was calculated by the fluorescence signal value. According to the inhibition rate of different concentrations, the IC50 of the compound was obtained by curve fitting.
(§4) The percentage inhibition data of the wells treated with the compound was calculated with the positive control wells (DMSO control wells) and negative control wells (no kinase added) on the plate {% inhibition rate=100-[(test compound value-negative control value)]/(Positive control value-negative control value)×100}. IC50 value was calculated by using GraphPad prism to fit the data of different concentrations and corresponding percentage inhibition rates to a 4-parameter non-linear logic formula.

For experiment [2], the target named is TYK2 (Homo sapiens, UniProt P29597). Kind of experiment: JAK kinase activity inhibition, TR-FRET (TYK2). Conditions: TR-FRET kinase assay. It counts as biochemical. How it is done:
as §1, §2, §3, §4

Sequence of JAK1 (P23458 whole entry): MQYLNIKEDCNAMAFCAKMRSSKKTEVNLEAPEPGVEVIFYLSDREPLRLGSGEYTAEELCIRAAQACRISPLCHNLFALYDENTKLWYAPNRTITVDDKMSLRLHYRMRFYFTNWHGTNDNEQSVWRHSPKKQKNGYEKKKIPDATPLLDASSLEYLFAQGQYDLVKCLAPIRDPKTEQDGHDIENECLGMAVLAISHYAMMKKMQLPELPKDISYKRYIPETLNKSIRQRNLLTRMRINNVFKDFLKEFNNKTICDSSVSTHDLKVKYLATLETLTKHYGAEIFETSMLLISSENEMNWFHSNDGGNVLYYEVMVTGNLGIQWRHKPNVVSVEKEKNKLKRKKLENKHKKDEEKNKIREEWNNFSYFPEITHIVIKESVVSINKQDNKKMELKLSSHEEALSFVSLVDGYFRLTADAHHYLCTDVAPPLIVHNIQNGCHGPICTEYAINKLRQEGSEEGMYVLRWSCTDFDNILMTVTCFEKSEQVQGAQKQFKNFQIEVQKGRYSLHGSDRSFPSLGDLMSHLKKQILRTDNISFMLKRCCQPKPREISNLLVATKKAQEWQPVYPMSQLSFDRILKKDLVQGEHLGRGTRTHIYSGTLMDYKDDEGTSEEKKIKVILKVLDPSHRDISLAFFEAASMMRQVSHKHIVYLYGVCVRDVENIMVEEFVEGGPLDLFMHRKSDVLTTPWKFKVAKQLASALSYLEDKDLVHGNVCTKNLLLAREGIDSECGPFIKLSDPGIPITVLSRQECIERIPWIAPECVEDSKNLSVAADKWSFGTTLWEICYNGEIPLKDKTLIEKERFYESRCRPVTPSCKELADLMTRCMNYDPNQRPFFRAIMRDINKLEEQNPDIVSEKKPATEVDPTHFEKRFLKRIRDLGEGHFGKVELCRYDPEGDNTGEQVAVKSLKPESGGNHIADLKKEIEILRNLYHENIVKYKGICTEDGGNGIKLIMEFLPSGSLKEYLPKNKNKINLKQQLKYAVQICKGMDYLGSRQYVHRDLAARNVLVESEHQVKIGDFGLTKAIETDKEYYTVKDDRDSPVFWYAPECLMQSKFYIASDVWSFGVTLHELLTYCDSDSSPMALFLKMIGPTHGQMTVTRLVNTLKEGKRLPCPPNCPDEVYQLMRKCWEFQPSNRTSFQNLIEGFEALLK
Sequence of TYK2 (P29597 whole entry): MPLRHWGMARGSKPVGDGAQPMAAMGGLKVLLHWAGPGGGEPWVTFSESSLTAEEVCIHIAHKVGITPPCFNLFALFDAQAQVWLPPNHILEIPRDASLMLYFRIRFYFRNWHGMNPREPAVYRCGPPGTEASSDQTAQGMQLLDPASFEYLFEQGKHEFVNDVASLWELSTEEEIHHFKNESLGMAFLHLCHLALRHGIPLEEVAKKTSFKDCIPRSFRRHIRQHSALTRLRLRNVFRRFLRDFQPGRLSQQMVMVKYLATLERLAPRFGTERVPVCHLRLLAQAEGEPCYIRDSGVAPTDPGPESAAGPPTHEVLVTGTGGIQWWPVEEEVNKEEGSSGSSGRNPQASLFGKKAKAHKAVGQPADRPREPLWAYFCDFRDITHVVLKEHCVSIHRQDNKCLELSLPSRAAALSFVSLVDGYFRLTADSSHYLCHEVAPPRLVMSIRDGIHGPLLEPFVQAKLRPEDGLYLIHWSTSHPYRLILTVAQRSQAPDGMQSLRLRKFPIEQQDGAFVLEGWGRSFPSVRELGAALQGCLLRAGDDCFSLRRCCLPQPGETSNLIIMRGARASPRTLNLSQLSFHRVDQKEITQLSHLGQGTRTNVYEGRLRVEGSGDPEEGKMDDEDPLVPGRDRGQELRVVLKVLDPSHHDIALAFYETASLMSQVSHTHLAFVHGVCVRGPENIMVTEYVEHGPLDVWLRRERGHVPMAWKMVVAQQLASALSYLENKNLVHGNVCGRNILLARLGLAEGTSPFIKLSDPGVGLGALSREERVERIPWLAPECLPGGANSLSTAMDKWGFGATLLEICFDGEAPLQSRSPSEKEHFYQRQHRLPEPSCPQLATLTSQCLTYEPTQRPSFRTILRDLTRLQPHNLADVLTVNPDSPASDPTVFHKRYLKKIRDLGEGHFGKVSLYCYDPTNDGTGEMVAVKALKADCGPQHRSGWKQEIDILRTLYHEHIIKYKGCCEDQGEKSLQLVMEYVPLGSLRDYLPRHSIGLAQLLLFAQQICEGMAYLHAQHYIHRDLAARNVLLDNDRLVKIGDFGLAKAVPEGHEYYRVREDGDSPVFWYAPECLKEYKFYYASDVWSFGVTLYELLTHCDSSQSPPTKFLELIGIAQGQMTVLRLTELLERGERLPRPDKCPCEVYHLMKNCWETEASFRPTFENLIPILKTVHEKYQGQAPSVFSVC

With `Cc1cc(Nc2nc(N[C@@H]3C[C@@H]4CN(CCC#N)C[C@@H]4C3)nc3ccccc23)n[nH]1` [Embodiment 300, 3-(cis-5-((4-((5-methyl-1H-pyrazol-3-yl)amino)quinazolin-2-yl)amino)hexahydrocyclopentadieno[c]pyrrole-2(1H)-yl)propionitrile], the values for the IC50 in experiment [1] and in experiment [2] were 5.11 nM and 14.7 nM, respectively.
The matching figures for `Cc1cc(Nc2nc(N[C@@H]3C[C@H]4CC[C@@H](C3)N4CCC#N)nc3ccc(Cl)cc23)n[nH]1` [Embodiment 178, 3-((3-exo)-3-((6-chloro-4-((5-methyl-1H-pyrazol-3-yl)amino)quinazolin-2-yl)amino)-8-azabicyclo[3.2.1]oct-8-yl)propionitrile]: 10.6 nM and more than 100 nM.
Taken in the same sequence, the figures for `Cc1cc(Nc2nc(N[C@@H]3C[C@H]4CC[C@@H](C3)N4CCC#N)nc3cc(-c4ccccc4)ccc23)n[nH]1` [Embodiment 184, 3-((3-exo)-3-((4-((5-methyl-1H-pyrazol-3-yl)amino)-7-phenylquinazolin-2-yl)amino)-8-azabicyclo[3.2.1]oct-8-yl)propionitrile] were 0.14 nM and 0.48 nM.
`Cc1cc(Nc2nc(N[C@@H]3C[C@H]4CC[C@@H](C3)N4CCC#N)c3cc[nH]c3n2)n[nH]1` [Embodiment 39, 3-((3-exo)-3-((2-((5-methyl-1H-pyrazol-3-yl)amino)-7H-pyrrolo[2,3-d]pyrimidin-4-yl)amino)-8-azabicyclo[3.2.1]oct-8-yl)propionitrile]: the IC50 in experiment [1] worked out at 2.94 nM; in experiment [2], 9.49 nM.
Take `N#CCCN1[C@@H]2CC[C@H]1C[C@H](Nc1nc(Nc3cc[nH]n3)cc3ncccc13)C2` [Embodiment 6, 3-((3-exo)-3-((7-((1H-pyrazol-3-yl)amino)-1,6-diazanaphthalen-5-yl)amino)-8-azabicyclo[3.2.1]oct-8-yl)propionitrile]: the half-maximal inhibitory concentration (IC50) in experiment [1] stood at 4.03 nM; in experiment [2] it was 10.7 nM.
Taken in the same sequence, the figures for `N#CCCN1[C@@H]2CC[C@H]1C[C@H](Nc1nc(Nc3ncc(CCO)s3)cc3ncccc13)C2` [Embodiment 161, 3-((3-exo)-3-((7-((5-(2-hydroxylethyl)thiazol-2-yl)amino)-1,6-diazanaphthalen-5-yl)amino)-8-azabicyclo[3.2.1]oct-8-yl)propionitrile] were 20.8 nM and 35 nM.
The matching figures for `N#CCCN1[C@@H]2CC[C@H]1C[C@H](Nc1nc(Nc3cc(CO)[nH]n3)cc3ncccc13)C2` [Embodiment 19, 3-((3-exo)-3-((7-((5-(hydroxymethyl)-1H-pyrazol-3-yl)amino)-1,6-diazanaphthalen-5-yl)amino)-8-azabicyclo[3.2.1]oct-8-yl)propionitrile]: 2.23 nM and 40.7 nM.
Taken in the same sequence, the figures for `N#CCCN1[C@@H]2CC[C@H]1C[C@H](Nc1nc(Nc3cc(F)[nH]n3)cc3ncccc13)C2` [Embodiment 9, 3-((3-exo)-3-((7-((5-fluoro-1H-pyrazol-3-yl)amino)-1,6-diazanaphthalen-5-yl)amino)-8-azabicyclo[3.2.1]oct-8-yl)propionitrile] were 30.6 nM and more than 100 nM.
Take `Cc1cc(Nc2nc(N[C@@H]3C[C@H]4CC[C@@H](C3)N4CCC#N)nc3cc(-n4ccnc4)ccc23)n[nH]1` [Embodiment 203, 3-((3-exo)-3-((7-(1H-imidazol-1-yl)-4-((5-methyl-1H-pyrazol-3-yl)amino)quinazolin-2-yl)amino)-8-azabicyclo[3.2.1]oct-8-yl)propionitrile]: the IC50 in experiment [1] came out at 0.23 nM; in experiment [2] it was 0.19 nM.
As to `Cc1cc(Nc2nc(N[C@@H]3C[C@H]4CC[C@@H](C3)N4C(=O)CN(C)C)nc3cc(Cl)ccc23)n[nH]1` [Embodiment 224], the IC50 in experiment [1] was 1.76 nM; in experiment [2], more than 100 nM.
